The text below walks through data of PubChem BioAssay AID1794807 (Yongcheng Song lab at Baylor College of Medicine, 2022).

The subject of this experiment is MV4;11 AML cells, XTT viability. Nature of the experiment: antiproliferative activity against MV4,11 AML cells – cell-based, XTT absorbance, dose response (AID 1794807). On the technique in general: Formazan colour is commonly taken as a measure of viable cells.

Calls of active or inactive are those of the source.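 How the source made its calls: active means half-maximal effective concentration EC50 under 50 µM in the live-cell XTT test; inactive means the rest.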

For `O=C(NCC1CCNCC1)c1cc2cc(-c3ccc(N4CCCCC4)cc3)ccc2s1`, the EC50 (in general, the concentration at which the effect is half-maximal) is 8.2 µM.

`O=C(NCC1CCNCC1)c1cc2ccc(-c3ccc(N4CCCCC4)cc3)cc2s1`: the EC50 was 9.6 µM.

As to `NCc1ccc(-c2ccc3cc(C(=O)NCC4CCNCC4)oc3c2)cc1`, the EC50 is 50 µM (inactive).

For the molecule `O=C(NCC1CCNCC1)c1c[nH]c2cc(-c3ccc(N4CCCCC4)cc3)ccc12`, the EC50 was 33 µM.

Turning to `NC(=O)c1ccc(-c2ccc3cc(C(=O)NCC4CCNCC4)sc3c2)cc1`, the EC50 is > 50 µM (inactive).

For the molecule `O=C(NCC1CCNCC1)c1c[nH]c2cc(-c3ccc(N4CCCC4)cc3)ccc12`, the EC50 was 26 µM.

With `O=C(NCC1CCNCC1)c1cc2ccc(-c3ccc(N4CCCC4)cc3)cc2s1`, the EC50 is 8.7 µM.

Regarding `O=C(NCC1CCNCC1)c1cc2cc(-c3cn[nH]c3)ccc2[nH]1`, the EC50 was > 50 µM (inactive).

Regarding `O=C(NCC1CCNCC1)c1cc2cc(-c3ccc(N4CCCCC4)cc3)ccc2[nH]1`, the EC50 was 22 µM.

Take `O=C(NCC1CCNCC1)c1coc2cc(-c3ccc(N4CCCCC4)cc3)ccc12`: the EC50 is 21 µM.
